# Laboratory results published in US20100242139A1, “XENOHORMESIS BASED COMPOSITIONS AND METHODS” (President and Fellows of Harvard College, priority 2006, published 2010).
# Columns and labels:
# PKBβ(h) = PKBβ(h) (Homo sapiens, UniProt P31751); assay: kinase panel activity, PKBβ(h); assay type: biochemical
# MAPK1(h) = MAPK1(h) (Homo sapiens, UniProt P27361); assay: kinase panel activity, MAPK1(h); assay type: biochemical; conditions: compound at 20 μM; vs reference with no compound
# CDK5/p25(h) = CDK5/p25(h) (Homo sapiens, UniProt Q00535); assay: kinase panel activity, CDK5/p25(h); assay type: biochemical; conditions: compound at 20 μM; vs reference with no compound
# Chain of CDK5/p25(h) (Q00535 whole entry): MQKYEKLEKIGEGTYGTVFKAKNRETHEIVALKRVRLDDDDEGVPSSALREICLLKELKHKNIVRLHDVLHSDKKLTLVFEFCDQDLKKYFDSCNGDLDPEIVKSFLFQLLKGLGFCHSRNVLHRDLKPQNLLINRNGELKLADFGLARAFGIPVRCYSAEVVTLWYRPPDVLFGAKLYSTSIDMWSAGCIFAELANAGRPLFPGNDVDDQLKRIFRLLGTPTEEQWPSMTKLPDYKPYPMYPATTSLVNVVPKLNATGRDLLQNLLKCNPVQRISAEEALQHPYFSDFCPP
# Chain of CDK5/p25(h) (Q15078 99-307 partner limits assumed): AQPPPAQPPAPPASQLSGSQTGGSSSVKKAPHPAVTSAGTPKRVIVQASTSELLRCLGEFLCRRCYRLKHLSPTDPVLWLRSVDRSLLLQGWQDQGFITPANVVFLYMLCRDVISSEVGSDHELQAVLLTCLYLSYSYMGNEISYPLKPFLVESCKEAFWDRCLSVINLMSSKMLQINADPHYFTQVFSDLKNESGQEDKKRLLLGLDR
# IR(h) = IR(h) (Homo sapiens, UniProt P06213); assay: kinase panel activity, IR(h); assay type: biochemical; conditions: compound at 20 μM; vs reference with no compound
# Chain of IR(h) (P06213 28-1382): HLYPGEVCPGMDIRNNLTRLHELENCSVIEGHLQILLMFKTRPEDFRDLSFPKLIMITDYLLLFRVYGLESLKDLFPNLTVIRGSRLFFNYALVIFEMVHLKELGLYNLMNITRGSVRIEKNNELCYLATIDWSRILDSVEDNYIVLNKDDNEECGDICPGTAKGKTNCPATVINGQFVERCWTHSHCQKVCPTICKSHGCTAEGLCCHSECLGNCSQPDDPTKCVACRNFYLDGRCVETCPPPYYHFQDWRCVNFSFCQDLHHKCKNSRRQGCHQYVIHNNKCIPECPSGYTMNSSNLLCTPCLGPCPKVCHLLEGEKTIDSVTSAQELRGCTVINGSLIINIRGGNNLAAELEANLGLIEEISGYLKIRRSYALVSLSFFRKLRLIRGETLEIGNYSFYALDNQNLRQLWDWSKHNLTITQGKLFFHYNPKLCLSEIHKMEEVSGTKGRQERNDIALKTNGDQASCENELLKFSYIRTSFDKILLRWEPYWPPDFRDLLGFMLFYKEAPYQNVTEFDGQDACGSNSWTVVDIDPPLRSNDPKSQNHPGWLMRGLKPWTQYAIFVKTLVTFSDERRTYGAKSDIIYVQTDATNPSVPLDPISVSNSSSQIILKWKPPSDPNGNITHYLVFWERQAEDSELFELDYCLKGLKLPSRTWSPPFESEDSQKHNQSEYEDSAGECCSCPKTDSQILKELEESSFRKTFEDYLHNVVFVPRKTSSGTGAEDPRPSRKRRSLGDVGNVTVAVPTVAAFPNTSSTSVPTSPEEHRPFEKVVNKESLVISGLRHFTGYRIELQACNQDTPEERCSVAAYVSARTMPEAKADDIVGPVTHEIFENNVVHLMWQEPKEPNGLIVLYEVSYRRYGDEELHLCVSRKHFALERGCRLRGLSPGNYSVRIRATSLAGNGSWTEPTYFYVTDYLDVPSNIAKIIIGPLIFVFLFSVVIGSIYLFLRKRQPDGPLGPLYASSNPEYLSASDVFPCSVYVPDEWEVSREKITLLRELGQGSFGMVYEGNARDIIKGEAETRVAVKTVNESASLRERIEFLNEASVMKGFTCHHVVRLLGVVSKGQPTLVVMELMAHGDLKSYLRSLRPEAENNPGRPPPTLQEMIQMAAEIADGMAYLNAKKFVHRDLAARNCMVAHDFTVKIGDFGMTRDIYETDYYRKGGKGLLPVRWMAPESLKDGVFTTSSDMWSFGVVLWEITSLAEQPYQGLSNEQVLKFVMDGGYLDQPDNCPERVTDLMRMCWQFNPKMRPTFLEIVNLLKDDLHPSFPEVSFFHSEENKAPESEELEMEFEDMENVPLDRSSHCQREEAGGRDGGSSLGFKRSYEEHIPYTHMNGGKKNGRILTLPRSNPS
# NEK3(h) = NEK3(h) (Homo sapiens, UniProt P51956); assay: kinase panel activity, NEK3(h); assay type: biochemical; conditions: compound at 20 μM; vs reference with no compound
# Chain of NEK3(h) (P51956 whole entry): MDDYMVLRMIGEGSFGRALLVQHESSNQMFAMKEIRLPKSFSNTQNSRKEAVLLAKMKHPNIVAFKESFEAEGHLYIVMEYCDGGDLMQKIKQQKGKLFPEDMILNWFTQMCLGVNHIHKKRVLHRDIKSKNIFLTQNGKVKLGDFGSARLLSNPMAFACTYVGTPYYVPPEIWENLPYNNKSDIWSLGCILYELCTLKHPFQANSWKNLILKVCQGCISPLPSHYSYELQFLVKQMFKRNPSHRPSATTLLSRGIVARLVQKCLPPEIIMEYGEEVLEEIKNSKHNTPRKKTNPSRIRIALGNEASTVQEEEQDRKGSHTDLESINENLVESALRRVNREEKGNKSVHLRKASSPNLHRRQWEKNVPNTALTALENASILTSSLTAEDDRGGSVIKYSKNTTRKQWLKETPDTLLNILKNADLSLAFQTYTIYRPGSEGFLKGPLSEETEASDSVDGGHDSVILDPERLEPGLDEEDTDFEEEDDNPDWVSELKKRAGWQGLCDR
# FL5.12 cells = assay: growth of hematopoietic cell line FL5.12; assay type: cell-based; conditions: 0.1, 1, 10 and 100 μM for 24 hours; in the presence of IL-3; Coulter counter
# Source text: Hematopoietic cell line FL5.12 cells were seed at equal density and grown in the presence of IL-3, a growth factor.
# IRS-1 = IRS-1 expression and phosphorylation on a high calorie diet; assay type: in vivo
# Source text: In addition, IRS-1 is phosphorylated at serine 307 (referred to PIRS-1).
# Abl(h) = Abl(h) (Homo sapiens, UniProt P00519); assay: kinase panel activity, Abl(h); assay type: biochemical; conditions: compound at 20 μM; vs reference with no compound
# PKCζ(h) = PKCζ(h) (Homo sapiens, UniProt Q05513); assay: kinase panel activity, PKCζ(h); assay type: biochemical; conditions: compound at 20 μM; vs reference with no compound
# PAK2(h) = PAK2(h) (Homo sapiens, UniProt Q13177); assay: kinase panel activity, PAK2(h); assay type: biochemical; conditions: compound at 20 μM; vs reference with no compound
# JAK2(h) = JAK2(h) (Homo sapiens, UniProt O60674); assay: kinase panel activity, JAK2(h); assay type: biochemical; conditions: compound at 20 μM; vs reference with no compound
# PKD2(h) = PKD2(h) (Homo sapiens, UniProt Q9BZL6); assay: kinase panel activity, PKD2(h); assay type: biochemical; conditions: compound at 20 μM; vs reference with no compound
# PKCβI(h) = PKCβI(h) (Homo sapiens, UniProt P05771); assay: kinase panel activity, PKCβI(h); assay type: biochemical; conditions: compound at 20 μM; vs reference with no compound
# PKCθ(h) = PKCθ(h) (Homo sapiens, UniProt Q04759); assay: kinase panel activity, PKCθ(h); assay type: biochemical; conditions: compound at 20 μM; vs reference with no compound
# Chain of PKCθ(h) (Q04759 whole entry): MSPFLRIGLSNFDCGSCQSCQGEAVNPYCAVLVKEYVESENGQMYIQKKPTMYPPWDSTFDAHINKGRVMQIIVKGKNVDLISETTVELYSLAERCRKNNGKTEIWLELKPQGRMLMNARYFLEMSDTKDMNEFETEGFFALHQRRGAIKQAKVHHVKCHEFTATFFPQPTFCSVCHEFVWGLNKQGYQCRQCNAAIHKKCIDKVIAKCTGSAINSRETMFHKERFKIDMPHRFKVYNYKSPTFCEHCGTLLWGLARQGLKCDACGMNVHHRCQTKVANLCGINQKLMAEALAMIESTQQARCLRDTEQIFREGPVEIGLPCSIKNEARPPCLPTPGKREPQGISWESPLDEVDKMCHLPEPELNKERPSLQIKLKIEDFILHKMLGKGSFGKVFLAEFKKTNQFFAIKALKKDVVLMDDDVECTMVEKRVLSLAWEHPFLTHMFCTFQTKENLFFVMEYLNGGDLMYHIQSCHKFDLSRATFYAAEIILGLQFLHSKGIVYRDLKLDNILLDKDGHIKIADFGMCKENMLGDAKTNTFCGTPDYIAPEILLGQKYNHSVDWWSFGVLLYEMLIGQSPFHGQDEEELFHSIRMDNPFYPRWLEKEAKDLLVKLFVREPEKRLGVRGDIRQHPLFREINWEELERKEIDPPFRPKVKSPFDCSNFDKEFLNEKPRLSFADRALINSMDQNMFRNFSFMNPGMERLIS
# PKCγ(h) = PKCγ(h) (Homo sapiens, UniProt P05129); assay: kinase panel activity, PKCγ(h); assay type: biochemical; conditions: compound at 20 μM; vs reference with no compound
# PKCδ(h) = PKCδ(h) (Homo sapiens, UniProt Q05655); assay: kinase panel activity, PKCδ(h); assay type: biochemical; conditions: compound at 20 μM; vs reference with no compound
# Chain of PKCδ(h) (Q05655 whole entry): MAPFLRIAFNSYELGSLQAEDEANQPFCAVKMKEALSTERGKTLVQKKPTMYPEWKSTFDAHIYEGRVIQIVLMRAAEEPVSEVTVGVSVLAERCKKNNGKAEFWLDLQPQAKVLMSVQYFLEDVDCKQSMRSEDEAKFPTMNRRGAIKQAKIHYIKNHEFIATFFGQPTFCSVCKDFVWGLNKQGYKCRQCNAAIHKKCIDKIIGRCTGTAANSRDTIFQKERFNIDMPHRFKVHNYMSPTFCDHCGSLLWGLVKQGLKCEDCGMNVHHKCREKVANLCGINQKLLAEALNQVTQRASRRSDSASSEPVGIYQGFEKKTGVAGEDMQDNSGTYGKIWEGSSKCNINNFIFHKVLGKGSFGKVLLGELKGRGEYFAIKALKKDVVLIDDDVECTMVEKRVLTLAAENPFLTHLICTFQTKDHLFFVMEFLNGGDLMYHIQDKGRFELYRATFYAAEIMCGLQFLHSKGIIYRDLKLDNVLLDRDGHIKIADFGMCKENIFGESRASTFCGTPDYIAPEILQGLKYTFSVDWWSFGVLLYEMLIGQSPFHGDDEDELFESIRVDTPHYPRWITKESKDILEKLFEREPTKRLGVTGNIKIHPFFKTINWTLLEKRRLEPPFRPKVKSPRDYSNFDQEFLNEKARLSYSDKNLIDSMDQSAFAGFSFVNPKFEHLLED
# Flt3(h) = Flt3(h) (Homo sapiens, UniProt P36888); assay: kinase panel activity, Flt3(h); assay type: biochemical; conditions: compound at 20 μM; vs reference with no compound
# PAK3(h) = PAK3(h) (Homo sapiens, UniProt O75914); assay: kinase panel activity, PAK3(h); assay type: biochemical; conditions: compound at 20 μM; vs reference with no compound
# Abl(T315I)(h) = Abl(T315I)(h) (Homo sapiens, UniProt P00519, T315I); assay: kinase panel activity, Abl(T315I)(h); assay type: biochemical; conditions: compound at 20 μM; vs reference with no compound
# Chain of PKBβ(h) (P31751 whole entry): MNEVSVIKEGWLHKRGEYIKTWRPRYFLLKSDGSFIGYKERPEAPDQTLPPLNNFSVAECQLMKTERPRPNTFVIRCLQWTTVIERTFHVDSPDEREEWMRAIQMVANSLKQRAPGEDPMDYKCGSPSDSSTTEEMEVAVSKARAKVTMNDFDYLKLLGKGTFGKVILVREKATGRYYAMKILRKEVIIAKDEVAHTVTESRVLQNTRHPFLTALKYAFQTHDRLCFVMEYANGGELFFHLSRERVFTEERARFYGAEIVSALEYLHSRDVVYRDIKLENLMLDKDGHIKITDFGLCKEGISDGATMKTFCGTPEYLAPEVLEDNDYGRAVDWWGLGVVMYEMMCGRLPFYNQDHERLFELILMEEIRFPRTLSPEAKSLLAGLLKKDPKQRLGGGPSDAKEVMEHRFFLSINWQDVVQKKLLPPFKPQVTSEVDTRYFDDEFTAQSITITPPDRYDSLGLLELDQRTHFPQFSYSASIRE
# Chain of MAPK1(h) (P27361 whole entry): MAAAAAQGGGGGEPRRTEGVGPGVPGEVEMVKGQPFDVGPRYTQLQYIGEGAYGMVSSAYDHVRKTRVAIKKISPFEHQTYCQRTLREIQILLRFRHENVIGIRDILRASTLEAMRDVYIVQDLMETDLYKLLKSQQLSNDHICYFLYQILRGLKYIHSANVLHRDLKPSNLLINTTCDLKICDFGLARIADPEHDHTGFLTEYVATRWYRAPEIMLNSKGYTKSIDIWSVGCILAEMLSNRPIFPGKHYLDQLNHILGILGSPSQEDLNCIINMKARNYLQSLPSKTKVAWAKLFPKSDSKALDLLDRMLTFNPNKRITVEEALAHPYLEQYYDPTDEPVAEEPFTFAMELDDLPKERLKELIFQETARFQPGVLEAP
compound,measurement,setting,value
"Oc1ccc(C=Cc2cc(O)cc(O)c2)cc1 [resveratrol, 3,5,4′-trihydroxystilbene]",activity at 20 µM,PKBβ(h); read-out: percent activity of PKBβ(h),105%
same,percent activity of MAPK1(h),MAPK1(h),94%
same,percent activity of CDK5/p25(h),CDK5/p25(h),64%
same,percent activity of IR(h),IR(h),71%
same,percent activity of NEK3(h),NEK3(h),96%
same,inhibition of FL5.12 cell growth,FL5.12 cells,dose dependent inhibition
same,expression level of IRS-1,IRS-1; approximately 22 mg/kg resveratrol added to diet,significantly reduced
same,"proportion of phosphorylated IRS-1 (PIRS-1, serine 307)",IRS-1; resveratrol treatment,increases
"O=C(O)[C@H]1O[C@@H](Oc2ccc(/C=C/c3cc(O)cc(O)c3)cc2)[C@H](O)[C@@H](O)[C@@H]1O [Res 4′-Gluc, resveratrol-4-glucuronide]",percent activity of PKBβ(h),"PKBβ(h); compound at 20 μM, vs reference with no compound",94%
same,percent activity of Abl(h),Abl(h),97%
same,percent activity of PKCζ(h),PKCζ(h),104%
same,percent activity of PAK2(h),PAK2(h),105%
same,percent activity of JAK2(h),JAK2(h),95%
same,percent activity of PKD2(h),PKD2(h),113%
same,percent activity of MAPK1(h),MAPK1(h),106%
same,percent activity of CDK5/p25(h),CDK5/p25(h),91%
same,percent activity of PKCβI(h),PKCβI(h),119%
same,percent activity of IR(h),IR(h),80%
same,percent activity of PKCθ(h),PKCθ(h),103%
same,percent activity of NEK3(h),NEK3(h),105%
same,percent activity of PKCγ(h),PKCγ(h),77%
same,percent activity of PKCδ(h),PKCδ(h),110%
same,percent activity of Flt3(h),Flt3(h),48%
same,percent activity of PAK3(h),PAK3(h),75%
same,percent activity of Abl(T315I)(h),Abl(T315I)(h),93%
